Laboratory results reported in ChEMBL document CHEMBL5291721, “A preclinical secondary pharmacology resource illuminates target-adverse drug reaction associations of marketed drugs” (Nat Commun, 2023).

Columns and labels:
[1] = target: T1, Neuropeptide Y receptor type 1 (Homo sapiens, UniProt P25929)
T1 sequence (P25929 whole entry): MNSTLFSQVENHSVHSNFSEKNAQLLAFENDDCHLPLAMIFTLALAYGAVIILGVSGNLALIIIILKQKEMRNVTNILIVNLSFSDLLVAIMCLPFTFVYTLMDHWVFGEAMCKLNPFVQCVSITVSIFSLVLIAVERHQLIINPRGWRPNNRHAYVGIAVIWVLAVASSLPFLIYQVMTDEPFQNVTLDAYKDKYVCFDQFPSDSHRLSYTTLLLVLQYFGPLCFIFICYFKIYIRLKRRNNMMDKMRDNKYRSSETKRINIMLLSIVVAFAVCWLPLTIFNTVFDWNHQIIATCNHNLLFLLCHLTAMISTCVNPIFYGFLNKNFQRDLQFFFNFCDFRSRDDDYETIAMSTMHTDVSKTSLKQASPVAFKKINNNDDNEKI

[2] = target: T2, Prostaglandin G/H synthase 1 (Rattus norvegicus, UniProt Q63921); type: functional
T2 sequence (Q63921 whole entry): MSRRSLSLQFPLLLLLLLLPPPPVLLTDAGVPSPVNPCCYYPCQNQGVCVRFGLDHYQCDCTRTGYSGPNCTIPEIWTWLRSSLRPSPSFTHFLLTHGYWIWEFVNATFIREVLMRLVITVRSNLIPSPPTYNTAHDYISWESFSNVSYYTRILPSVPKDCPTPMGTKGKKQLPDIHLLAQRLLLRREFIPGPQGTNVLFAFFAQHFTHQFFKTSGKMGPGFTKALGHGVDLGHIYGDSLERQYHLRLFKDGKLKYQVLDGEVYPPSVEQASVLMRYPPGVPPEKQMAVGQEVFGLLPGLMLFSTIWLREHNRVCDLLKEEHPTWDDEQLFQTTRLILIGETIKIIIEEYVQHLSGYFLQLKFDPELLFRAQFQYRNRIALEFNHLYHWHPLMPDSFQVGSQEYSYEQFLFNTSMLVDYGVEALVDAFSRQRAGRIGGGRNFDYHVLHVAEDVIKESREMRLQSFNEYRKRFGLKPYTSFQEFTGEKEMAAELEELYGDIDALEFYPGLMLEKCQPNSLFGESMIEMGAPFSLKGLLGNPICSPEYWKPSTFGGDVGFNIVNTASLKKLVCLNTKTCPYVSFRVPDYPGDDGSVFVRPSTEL

[3] = target: 5-hydroxytryptamine receptor 2B (Homo sapiens, UniProt P41595); type: functional, cell-based
D(1A) dopamine receptor = D(1A) dopamine receptor (Homo sapiens, UniProt P21728); type: functional, cell-based
[4] = target: 3',5'-cyclic-AMP phosphodiesterase 4D (Homo sapiens, UniProt Q08499); type: functional
[5] = target: Sodium-dependent noradrenaline transporter (Homo sapiens, UniProt P23975)
Progesterone receptor = target: T3, Progesterone receptor (Homo sapiens, UniProt P06401); type: functional
T3 sequence (P06401 whole entry): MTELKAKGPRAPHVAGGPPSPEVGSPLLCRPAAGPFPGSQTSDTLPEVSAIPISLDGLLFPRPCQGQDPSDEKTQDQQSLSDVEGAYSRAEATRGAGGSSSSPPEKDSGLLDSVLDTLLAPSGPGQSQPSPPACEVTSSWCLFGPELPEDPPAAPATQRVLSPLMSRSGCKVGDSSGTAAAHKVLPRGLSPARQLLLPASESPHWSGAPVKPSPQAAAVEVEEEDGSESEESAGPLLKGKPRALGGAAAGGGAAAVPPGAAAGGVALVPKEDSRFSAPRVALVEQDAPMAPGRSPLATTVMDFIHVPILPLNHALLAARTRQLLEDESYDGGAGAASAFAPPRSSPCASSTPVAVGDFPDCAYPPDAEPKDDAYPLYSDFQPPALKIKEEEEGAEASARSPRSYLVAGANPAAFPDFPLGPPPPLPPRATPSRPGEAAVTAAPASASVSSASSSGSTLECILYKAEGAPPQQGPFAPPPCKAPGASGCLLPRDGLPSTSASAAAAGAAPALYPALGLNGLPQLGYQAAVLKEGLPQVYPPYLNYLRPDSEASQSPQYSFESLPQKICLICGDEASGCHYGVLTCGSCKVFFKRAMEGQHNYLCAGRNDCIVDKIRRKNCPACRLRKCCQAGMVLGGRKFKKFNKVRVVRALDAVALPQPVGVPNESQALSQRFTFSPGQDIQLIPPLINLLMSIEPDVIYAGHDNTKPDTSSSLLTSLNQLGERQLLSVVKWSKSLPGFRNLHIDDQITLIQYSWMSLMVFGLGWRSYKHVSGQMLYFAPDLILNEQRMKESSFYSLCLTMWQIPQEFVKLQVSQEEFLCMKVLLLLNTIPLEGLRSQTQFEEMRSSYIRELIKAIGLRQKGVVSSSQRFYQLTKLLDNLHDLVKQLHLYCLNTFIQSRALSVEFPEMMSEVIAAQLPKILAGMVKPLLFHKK

[6] = target: T4, 5-hydroxytryptamine receptor 3A (Homo sapiens, UniProt P46098); type: functional
T4 sequence (P46098 whole entry): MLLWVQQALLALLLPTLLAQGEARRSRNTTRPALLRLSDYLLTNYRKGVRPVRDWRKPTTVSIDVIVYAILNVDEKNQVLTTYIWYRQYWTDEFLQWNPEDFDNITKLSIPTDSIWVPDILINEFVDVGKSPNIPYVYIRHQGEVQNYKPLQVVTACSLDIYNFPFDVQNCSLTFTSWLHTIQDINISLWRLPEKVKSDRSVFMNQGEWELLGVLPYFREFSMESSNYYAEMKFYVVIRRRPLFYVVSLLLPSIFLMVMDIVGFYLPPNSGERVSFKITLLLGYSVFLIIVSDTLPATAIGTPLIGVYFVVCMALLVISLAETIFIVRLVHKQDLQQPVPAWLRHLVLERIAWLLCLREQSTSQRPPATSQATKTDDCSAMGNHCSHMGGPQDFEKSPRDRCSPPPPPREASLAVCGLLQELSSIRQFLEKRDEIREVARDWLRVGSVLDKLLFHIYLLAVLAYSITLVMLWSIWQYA

Histamine H1 receptor = Histamine H1 receptor (Homo sapiens, UniProt P35367)
Further: assay procedure not described here.

Sequence of 5-hydroxytryptamine receptor 2B (P41595 whole entry): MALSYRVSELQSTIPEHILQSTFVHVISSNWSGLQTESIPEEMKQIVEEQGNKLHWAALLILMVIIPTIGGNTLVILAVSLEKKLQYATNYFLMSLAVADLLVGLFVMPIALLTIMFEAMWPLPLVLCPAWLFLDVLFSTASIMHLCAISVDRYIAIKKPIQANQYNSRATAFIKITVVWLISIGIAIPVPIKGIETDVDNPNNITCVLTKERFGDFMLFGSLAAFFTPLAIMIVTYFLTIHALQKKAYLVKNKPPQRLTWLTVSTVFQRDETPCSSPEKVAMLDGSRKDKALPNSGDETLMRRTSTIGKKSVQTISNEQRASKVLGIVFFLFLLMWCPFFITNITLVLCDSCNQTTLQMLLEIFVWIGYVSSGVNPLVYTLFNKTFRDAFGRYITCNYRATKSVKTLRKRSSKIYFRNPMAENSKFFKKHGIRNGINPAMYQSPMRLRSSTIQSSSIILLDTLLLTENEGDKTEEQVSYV
Sequence of Sodium-dependent noradrenaline transporter (P23975 whole entry): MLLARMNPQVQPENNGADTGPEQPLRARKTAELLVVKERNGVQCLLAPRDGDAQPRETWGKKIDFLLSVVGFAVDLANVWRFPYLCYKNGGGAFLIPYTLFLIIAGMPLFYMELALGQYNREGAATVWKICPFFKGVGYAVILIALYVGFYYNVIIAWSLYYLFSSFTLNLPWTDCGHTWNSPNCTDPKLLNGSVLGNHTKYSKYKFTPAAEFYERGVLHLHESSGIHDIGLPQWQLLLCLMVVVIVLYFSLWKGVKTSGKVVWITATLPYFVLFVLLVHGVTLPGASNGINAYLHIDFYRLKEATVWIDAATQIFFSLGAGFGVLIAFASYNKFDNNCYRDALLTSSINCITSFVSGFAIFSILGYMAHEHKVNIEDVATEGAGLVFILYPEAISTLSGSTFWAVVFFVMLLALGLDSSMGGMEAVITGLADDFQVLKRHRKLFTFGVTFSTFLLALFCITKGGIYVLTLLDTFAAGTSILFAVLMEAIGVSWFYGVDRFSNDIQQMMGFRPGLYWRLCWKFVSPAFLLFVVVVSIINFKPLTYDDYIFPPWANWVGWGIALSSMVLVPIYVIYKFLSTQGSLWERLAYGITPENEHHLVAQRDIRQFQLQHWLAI
Sequence of D(1A) dopamine receptor (P21728 whole entry): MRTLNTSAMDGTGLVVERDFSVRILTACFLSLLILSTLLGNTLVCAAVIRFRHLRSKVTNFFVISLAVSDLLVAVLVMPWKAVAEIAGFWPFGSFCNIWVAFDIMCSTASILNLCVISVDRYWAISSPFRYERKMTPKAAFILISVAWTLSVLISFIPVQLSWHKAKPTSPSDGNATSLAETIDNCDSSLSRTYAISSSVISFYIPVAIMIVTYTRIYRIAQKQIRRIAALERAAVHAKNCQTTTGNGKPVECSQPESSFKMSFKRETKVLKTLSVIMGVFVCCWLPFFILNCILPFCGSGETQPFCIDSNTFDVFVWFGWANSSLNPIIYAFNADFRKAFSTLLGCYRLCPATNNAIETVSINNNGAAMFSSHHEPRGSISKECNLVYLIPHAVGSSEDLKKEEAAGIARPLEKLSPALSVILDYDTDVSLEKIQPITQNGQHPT
Sequence of Histamine H1 receptor (P35367 whole entry): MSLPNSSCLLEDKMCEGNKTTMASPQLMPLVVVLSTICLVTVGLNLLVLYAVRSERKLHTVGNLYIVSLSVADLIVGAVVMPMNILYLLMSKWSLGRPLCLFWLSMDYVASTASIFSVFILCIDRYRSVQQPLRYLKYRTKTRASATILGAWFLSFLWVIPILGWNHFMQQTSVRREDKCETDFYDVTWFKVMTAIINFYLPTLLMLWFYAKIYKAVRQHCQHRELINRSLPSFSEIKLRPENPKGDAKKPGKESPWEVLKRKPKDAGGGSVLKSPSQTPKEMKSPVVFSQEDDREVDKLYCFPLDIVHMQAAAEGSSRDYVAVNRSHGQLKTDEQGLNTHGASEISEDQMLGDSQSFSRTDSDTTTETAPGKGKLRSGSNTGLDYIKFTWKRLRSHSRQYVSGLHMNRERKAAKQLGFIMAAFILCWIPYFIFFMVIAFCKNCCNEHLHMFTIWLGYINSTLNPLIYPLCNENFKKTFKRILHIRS
Sequence of 3',5'-cyclic-AMP phosphodiesterase 4D (Q08499 whole entry): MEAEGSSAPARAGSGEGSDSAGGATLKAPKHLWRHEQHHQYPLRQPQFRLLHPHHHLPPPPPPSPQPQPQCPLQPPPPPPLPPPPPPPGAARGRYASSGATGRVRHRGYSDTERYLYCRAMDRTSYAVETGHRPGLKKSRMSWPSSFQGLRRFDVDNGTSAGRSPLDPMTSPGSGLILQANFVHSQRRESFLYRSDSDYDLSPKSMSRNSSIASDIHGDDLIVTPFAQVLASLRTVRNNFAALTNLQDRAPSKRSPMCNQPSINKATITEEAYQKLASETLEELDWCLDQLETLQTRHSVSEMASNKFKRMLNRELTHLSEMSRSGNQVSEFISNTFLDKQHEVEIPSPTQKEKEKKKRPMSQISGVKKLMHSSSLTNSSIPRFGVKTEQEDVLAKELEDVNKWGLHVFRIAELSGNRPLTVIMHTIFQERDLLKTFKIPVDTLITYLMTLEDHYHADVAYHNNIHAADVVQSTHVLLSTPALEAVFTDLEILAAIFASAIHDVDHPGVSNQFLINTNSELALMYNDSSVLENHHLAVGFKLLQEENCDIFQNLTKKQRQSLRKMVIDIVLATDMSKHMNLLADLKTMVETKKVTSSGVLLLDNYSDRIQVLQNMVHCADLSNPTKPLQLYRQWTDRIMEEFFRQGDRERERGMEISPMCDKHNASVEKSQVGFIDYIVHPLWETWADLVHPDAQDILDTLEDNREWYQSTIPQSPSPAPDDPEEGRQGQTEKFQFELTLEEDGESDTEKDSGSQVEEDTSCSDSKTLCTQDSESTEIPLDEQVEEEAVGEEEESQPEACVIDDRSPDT

Row | Compound | AC50 [1] [µM] | AC50 [2] [µM] | AC50 [3] [µM] | AC50 (D(1A) dopamine receptor) [µM] | AC50 [4] [µM] | AC50 [5] [µM] | AC50 (Progesterone receptor) [µM] | AC50 [6] [µM] | AC50 (Histamine H1 receptor) [µM]
1 | CNS(=O)(=O)Cc1ccc2[nH]cc(CCN(C)C)c2c1 | > 30 | > 30 | > 10 | > 30 | > 30 | > 10 |  |  | 
2 | CC=CC(=O)N(CC)c1ccccc1C | > 10 | > 10 | > 10 | > 10 | > 30 | > 10 | > 10 | > 30 | 
3 | NCC[C@H](O)C(=O)N[C@@H]1C[C@H](N)[C@@H](O[C@H]2O[C@H](CN)[C@@H](O)[C@H](O)[C@H]2O)[C@H](O)[C@H]1O[C@H]1O[C@H](CO)[C@@H](O)[C@H](N)[C@H]1O [AMIKACIN] | > 10 | > 10 | > 10 | > 10 | > 30 | > 10 | > 10 | > 30 | 
4 | CCOC(=O)OC(C)OC1=C(C(=O)Nc2ccccn2)N(C)S(=O)(=O)c2ccccc21 (centres undefined) [AMPIROXICAM] | > 30 | > 30 | 10 | > 30 | > 30 | > 30 | > 30 | > 30 | 
5 | COC(=O)C1=C(C)NC(C)=C(C(=O)OC2CCCN(Cc3ccccc3)C2)C1c1cccc([N+](=O)[O-])c1 (centres undefined) [BENIDIPINE] | > 30 | > 30 | > 30 | > 30 | 7.1 | 13 |  | > 30 | 27
6 | CCN1CCN(C(=O)N[C@@H](C(=O)N[C@@H]2C(=O)N3C(C(=O)O)=C(CSc4nnnn4C)CS[C@H]23)c2ccc(O)cc2)C(=O)C1=O [CEFOPERAZONE] | > 30 | > 30 | > 30 | > 30 | > 30 | > 30 |  | > 30 | > 30
7 | COc1ccc2c3c1O[C@H]1[C@@H](O)C=C[C@H]4[C@@H](C2)N(C)CC[C@@]341 [CODEINE] | > 30 | > 30 | > 10 | > 10 | 7.2 | > 30 |  | > 10 | > 10
8 | C#C[C@]1(O)CC[C@H]2[C@@H]3CCC4=Cc5oncc5C[C@]4(C)[C@H]3CC[C@@]21C [DANAZOL] | > 10 |  | > 10 |  |  |  | 0.019 |  | 
9 | Cn1c(=O)c2c(ncn2CC2OCCO2)n(C)c1=O [DOXOFYLLINE] | > 30 | > 30 | > 30 | > 30 | > 30 | > 30 | > 30 | > 30 | 
10 | Cc1ccc(S(=O)(=O)NC(=O)NN2CC3CCCC3C2)cc1 (centres undefined) [GLICLAZIDE] | > 10 | > 10 | > 10 | > 30 | > 30 | > 10 | > 10 | > 30 | 
11 | CC(C)Cn1cnc2c(N)nc3ccccc3c21 [IMIQUIMOD] | > 10 | > 30 | 13.8 | > 10 | 4.03 | > 30 | > 10 | > 30 | 
12 | Nc1nc(N)nc(-c2cc(Cl)ccc2Cl)n1 [IRSOGLADINE] | > 30 | > 30 | 22 | > 30 | 21.4 | > 30 | > 30 |  | 
13 | CNC(C)CCC=C(C)C (centres undefined) [ISOMETHEPTENE] | > 30 | > 30 |  |  |  | > 30 | > 30 |  | 
14 | CC(C)(C)c1cc(C(C)(C)C)c(NC(=O)c2c[nH]c3ccccc3c2=O)cc1O [IVACAFTOR] | > 30 | > 30 | > 10 |  | > 30 | 6.5 |  | > 30 | > 10
15 | C[C@](N)(Cc1ccc(O)c(O)c1)C(=O)O [METHYLDOPA] | > 10 | > 30 | > 10 | > 30 | > 30 | > 10 | > 30 | > 30 | 
16 | O=C(NCCN1CCOCC1)c1ccc(Cl)cc1 [MOCLOBEMIDE] | > 10 | > 10 | > 10 | > 10 | > 30 | > 10 | > 10 | > 30 | 
17 | N#Cc1ccc([C@H]2CCc3cncn32)c(F)c1 [OSILODROSTAT] | > 10 |  |  |  | > 10 | > 10 |  | > 10 | 10
18 | CCCN(CCC)C(=O)C(CCC(=O)O)NC(=O)c1ccccc1 (centres undefined) [PROGLUMIDE] | > 30 | > 30 | > 10 | > 30 | > 30 | > 30 | > 30 | > 30 | 
19 | C[C@]12CC[C@H]3[C@@H](CCC4=CC(=O)CC[C@@]43C)[C@@H]1CC[C@@H]2O [TESTOSTERONE] | > 10 | > 10 | > 10 | > 30 | > 30 | > 10 | 0.092 | > 30 | 
20 | CN1CCN(CC/C=C2/c3ccccc3Sc3ccc(S(=O)(=O)N(C)C)cc32)CC1 [THIOTHIXENE] | > 30 | > 30 | 4.9 | > 30 | 4.1 | > 10 |  | 1.6 | 
21 | CN1C(=O)OC(C)(C)C1=O [TRIMETHADIONE] | > 10 | > 10 | > 10 | > 10 | > 30 | > 10 | > 10 | > 30 | 
22 | CC(=O)O[C@H]1C[C@@H]2CC[C@@H]3[C@H](CC[C@@]4(C)[C@H]3C[C@H]([N+]3(C)CCCCC3)[C@@H]4OC(C)=O)[C@@]2(C)C[C@@H]1N1CCCCC1 [VECURONIUM] | > 30 | 14 | > 30 | > 30 | > 30 | > 30 | > 30 | > 30 | 
